Key:
[1] = tested on: HaCaT human keratinocytes; experiment: Assaying of ATP after irradiation with blue light; type: cell-based; conditions: 24 h pretreatment with dry bacterial extract in DMSO containing 0.05 μg/ml neurosporene; blue light 460 nm, 100 J/cm2; ATP standardized by live cells; FIG. 10
Method: HaCaT human keratinocytes were seeded into 96-well microplates in a proportion of 20 000 cells/well in DMEM supplemented with 10% of fetal calf serum and incubated at 37° C. in 5% CO2 and 95% humidity for 24 hours. After a period of recovery, the cells were pretreated with a dry bacterial extract taken up in DMSO and containing 0.05 μg/ml of neurosporene and a mixture of carotenoids (phytoene, lycopene, zeta-carotene, phytofluene and gamma-carotene), the neurosporene being the major carotenoid of this extract. The cells were incubated at 37° C. in 5% CO2 and 95% humidity for 24 hours. Immediately afterwards, the cells were irradiated with blue light (460 nm, 100 J/cm 2). The cells were then washed three times in 1×PBS buffer and permeabilized with 2% triton at 25° C. for 20 min. The supernatants were then collected in order to quantify the ATP by luminescence (Invitrogen™ ATP Determination Kit, Molecular Probes™). The amount of ATP per well is standardized by the amount of live cells. Each condition was carried out in triplicate.

[2] = tested on: explants of human skin of phototype IV; experiment: Quantification of the melanin in human skin explants irradiated with blue light; conditions: topical refined plant oil with 12.5 ppm neurosporene and 4 ppm other carotenoids, 5 mg/cm2 daily; blue light 447 nm, 202.6 J/cm2; Fontana-Masson staining; p-value<0.01
Method: Explants of human skin of phototype IV were placed under culture conditions. After 24 h, three conditions were studied: a nontreated control, a topical treatment with refined plant oil alone or a topical treatment with a preparation of refined plant oil containing neurosporene (12.5 ppm of neurosporene and 4 ppm of a mixture of carotenoids, namely phytoene, lycopene, zeta-carotene, phytofluene and gamma-carotene). The products were applied every day (5 mg/cm 2) for 3 days. Each condition was carried out in triplicate.
After 3 days of pretreatment, a blue light stress was applied by irradiation at the wavelength of 447 nm each day for 3 days, corresponding to a dose of 202.6 J/cm^2. After each irradiation, the explants were again and, depending on the conditions, not treated or treated either with plant oil alone or with the plant oil containing neurosporene.
The melanin was then quantified after analysis of images taken with an epifluorescence microscope (Zeiss, Axio Imager Z1, ApoTome, Zen2 software blue edition) and staining according to the Fontana Masson method. The images were then analyzed on ImageJ. The area of melanin staining was standardized by the length of the basal lamina. The experiment was carried out in triplicate for each condition (nontreated, treatment with vegetable oil alone, treatment with vegetable oil enriched in neurosporene).

[3] = tested on: HaCaT human keratinocytes; experiment: Wound healing test (scratched keratinocyte monolayer); type: cell-based; conditions: neurosporene 0.12 μg/ml; FCS-free DMEM; FIG. 6
Method: HaCaT human keratinocytes were seeded into 96-well microplates in a proportion of 33 000 cells/well in DMEM medium supplemented with 10% of FCS and incubated at 37° C. in 5% CO2 and 95% humidity for 24 hours. Once confluence was reached, the cells were washed three times in FCS-free DMEM in order to remove from the wells the growth factors present in the complete medium. The keratinocyte monolayers were then scratched using a “WoundMaker” (Essen Biosciences) which makes it possible to injure cell monolayers in 96-well format. The cells were then washed three times with FCS-free DMEM in order to remove the cell debris. After washing, DMEM medium was added to the wells. EGF (Epidermal growth factor, ng/ml) used as positive control for injury filling or neurosporene (0.12 μg/ml) was added to the wells. The wound healing was observed by phase-contrast microscopy using an “Incucyte ZOOM” (Essen Biosciences), which is an automatic microscope maintained in a CO2 incubator. The images were then processed using the associated software.

[4] = tested on: HaCaT human keratinocytes; experiment: Detection of ROSs in keratinocytes under irradiation with UVA radiation; type: cell-based; conditions: 1 h pretreatment, neurosporene 0 to 4 μg/ml or bacterial extract 0 to 15 μg/ml; UVA 20 J/cm2; CellROX deep red; FIGS. 1-2
Method: (§1) HaCaT human keratinocytes were seeded into 96-well microplates in a proportion of 10 000 cells/well in DMEM medium supplemented with 10% of FCS (fetal calf serum) and incubated at 37° C. in 5% CO2 and 95% humidity for 24 hours. After this period of recovery, the cells were pretreated with either 43 μg/ml of α-tocopherol or with an increasing range of neurosporene (from 0 to 4 μg/ml) or with an increasing range of bacterial extract comprising neurosporene (from 0 to 15 μg/ml) for one hour. At the end of the pretreatment, 5 μM of “CellROX deep red” (a label which becomes fluorescent in the presence of reactive oxygen species (ROS)) and Hoechst (10 μg/ml) (which becomes fluorescent when it is bound to the DNA in the nucleus) were added to the medium. Immediately afterwards, the cells were treated either with UVA radiation (20 J/cm 2), or with a blue light (460 nm, 150 J/cm 2). The cells were then washed three times in 1×DPBS buffer and observed under a fluorescence microscope (CellInsight CX7, ThermoFisher). The fluorescence signals were then analyzed using the HCS Studio software (ThermoFisher) in order to quantify the ROSs produced in the cytosol.

[5] = ABTS radical cation reduction test; type: physicochemical; conditions: 5 min at ambient temperature, expressed as α-tocopherol equivalent, FIG. 7
Method: The ABTS test is based on the use of colored cationic radicals. In the presence of a molecule having an antioxidant power, the colored cationic radical is reduced and loses its color. Consequently, the antioxidant power of a molecule can be measured by the decoloration of the radical.
A solution was prepared by mixing ABTS (7 mM), potassium persulfate (2.45 mM) and water (qs 5 ml) and incubated for 16 hours at ambient temperature in the dark. Next, a range of eight concentrations of neurosporene, lycopene, α-tocopherol, 9Z-β carotene, zeaxanthin, trolox and D-tocotrienol was dispensed into 96-well microplates before adding the ABTS solution prepared above. The microplates were then incubated at ambient temperature for 5 min, and the coloration was then analyzed at 250 nm using a microplate reader.

[6] = tested on: HaCaT human keratinocytes; experiment: Detection of ROSs in keratinocytes under irradiation with blue light; type: cell-based; conditions: 1 h pretreatment, neurosporene 0 to 4 μg/ml or bacterial extract 0 to 15 μg/ml; blue light 460 nm, 150 J/cm2; CellROX deep red; FIGS. 3-4
Method: as §1

Question: For `CC(C)=CCC/C(C)=C/C=C/C(C)=C/C=C/C(C)=C/C=C/C=C(C)/C=C/C=C(\C)CC/C=C(\C)CCC=C(C)C` [neurosporene, 7,8-dihydro-ψ,ψ-carotene], which “effect on intracellular ATP reduction induced by blue light” value [1] is on record?
Answer: Its value is “makes it possible to limit the ATP reduction induced by blue light”.

Question: What about the “melanin production induced by blue light, change compared to the control exposed without treatment” value [2] of the same molecule?
Answer: Its value is −25%.

Question: What about the “improvement of wound healing (injury filling by cell confluence) compared to nontreated control” value [3] of the same molecule?
Answer: The value was 35%.

Question: And the “antioxidant power against UVA radiation (ROSs produced in the cytosol)” value [4]?
Answer: The value was “strong antioxidant power”.

Question: What about the “antioxidant power relative to reference molecule α-tocopherol” value [5] of the same molecule?
Answer: Its value is “two times greater”.

Question: And the “antioxidant power against blue light (ROSs produced in the cytosol)” value [6]?
Answer: Its value is “strong antioxidant power”.
